Tests used:
DNA gyrase = DNA gyrase (Staphylococcus aureus, UniProt P0A0K8+P20831); experiment: Inhibition of Staphylococcus aureus DNA gyrase; assay type: protein-complex assay
DNA gyrase subunit B = DNA gyrase subunit B (Staphylococcus aureus, UniProt P0A0K8); experiment: Inhibition of Staphylococcus aureus GyrB
DNA gyrase subunit B, sequence (P0A0K8 whole entry): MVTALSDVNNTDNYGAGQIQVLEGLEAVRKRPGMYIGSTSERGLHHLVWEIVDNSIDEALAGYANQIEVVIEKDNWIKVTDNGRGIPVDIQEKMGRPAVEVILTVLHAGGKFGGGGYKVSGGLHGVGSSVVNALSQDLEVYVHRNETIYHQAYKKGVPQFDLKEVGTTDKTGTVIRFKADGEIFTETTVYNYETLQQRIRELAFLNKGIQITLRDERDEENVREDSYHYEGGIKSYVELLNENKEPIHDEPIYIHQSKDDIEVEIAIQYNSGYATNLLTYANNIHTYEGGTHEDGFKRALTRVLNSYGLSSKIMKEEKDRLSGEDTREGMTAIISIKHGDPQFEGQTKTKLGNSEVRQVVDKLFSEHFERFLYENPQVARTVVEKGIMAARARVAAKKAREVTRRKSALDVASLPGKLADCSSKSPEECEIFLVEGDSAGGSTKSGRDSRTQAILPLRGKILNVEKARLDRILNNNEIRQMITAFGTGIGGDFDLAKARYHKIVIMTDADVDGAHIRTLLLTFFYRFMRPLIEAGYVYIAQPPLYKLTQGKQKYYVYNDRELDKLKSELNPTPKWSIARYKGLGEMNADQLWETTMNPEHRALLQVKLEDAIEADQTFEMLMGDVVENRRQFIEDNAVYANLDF

DNA gyrase, sequence (P0A0K8 whole entry): as above
DNA gyrase, sequence (P20831 whole entry): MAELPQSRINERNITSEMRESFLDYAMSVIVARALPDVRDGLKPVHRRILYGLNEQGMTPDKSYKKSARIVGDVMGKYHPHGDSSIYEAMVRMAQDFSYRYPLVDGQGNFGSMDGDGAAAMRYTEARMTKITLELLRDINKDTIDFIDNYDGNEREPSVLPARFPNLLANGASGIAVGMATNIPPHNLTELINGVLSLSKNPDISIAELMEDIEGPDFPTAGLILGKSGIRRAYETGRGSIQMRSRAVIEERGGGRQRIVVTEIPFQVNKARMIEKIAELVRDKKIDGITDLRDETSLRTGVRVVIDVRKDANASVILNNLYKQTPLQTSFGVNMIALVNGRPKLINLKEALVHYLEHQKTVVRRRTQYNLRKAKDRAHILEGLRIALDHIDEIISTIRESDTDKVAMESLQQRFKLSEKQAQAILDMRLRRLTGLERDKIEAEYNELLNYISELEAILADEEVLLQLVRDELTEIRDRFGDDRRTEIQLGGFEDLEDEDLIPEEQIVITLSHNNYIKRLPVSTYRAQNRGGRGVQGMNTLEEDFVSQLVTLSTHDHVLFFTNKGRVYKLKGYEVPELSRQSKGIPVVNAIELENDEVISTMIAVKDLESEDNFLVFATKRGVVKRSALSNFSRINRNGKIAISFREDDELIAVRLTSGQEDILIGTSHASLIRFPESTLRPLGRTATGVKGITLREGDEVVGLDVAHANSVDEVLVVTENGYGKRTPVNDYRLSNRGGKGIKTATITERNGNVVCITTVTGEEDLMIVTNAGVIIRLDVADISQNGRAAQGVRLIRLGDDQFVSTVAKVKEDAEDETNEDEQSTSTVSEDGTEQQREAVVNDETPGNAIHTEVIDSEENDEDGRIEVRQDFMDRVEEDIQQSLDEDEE

In the case of `Cc1occc1C(=O)NNC(=S)NC(=O)c1ccccc1`, the IC50 (DNA gyrase) is reported as 15 µM.

`C=C1CC[C@@H](O[C@H]2C[C@@](O)([C@H](C)NC(=O)c3[nH]c(C)c(Cl)c3Cl)[C@H](O)[C@@H](C)O2)[C@@H]2C=C[C@H](C)C(/C(O)=C3\C(=O)[C@H](C(C)C)N([C@H]4O[C@H](C)[C@H](OC(N)=O)[C@H](OC(C)=O)[C@@H]4OC)C3=O)[C@@H]12` (some centres not stated) [KIBDELOMYCIN] showed an IC50 (DNA gyrase subunit B) of 0.009 µM.
